In US8036738B2, “Iontophoretic transdermal drug delivery system based on conductive polyaniline membrane” (priority 2006, dated 2011):
Structures can show the parent of a compound that is named as a salt. Where two headings read alike, the source gives them in different places. One block for each compound: values may come before it.

Legend:
[1] = Source text: To study the iontophoretic property of the PANi membranes, standard Ag|AgCl electrode was used.
[2] = Iontophoretic release through mouse skin with and without PANi membrane; assay type: in vitro ADME; settings: 0.3 mA/cm^2, EtOH:water 2:1 with 5% linoleic acid
Description: Skin membranes: Male hairless mice, strain SKH1, 8 weeks old, were supplied by Charles River Laboratories (Wilmington, Mass.). Mice were euthanized by carbon dioxide asphyxiation. Their skins were excised and kept at −30° C. until used.
In the case of skin membranes, the plastic bags containing the mouse skins were first taken out of the freezer and put into a beaker filled with room temperature water until they were defrosted. The skin samples were then removed from the plastic bags and cleaned of adhering fat deposits. They were then cut into small pieces of appropriate size and carefully mounted on top of the diffusion cells and left to equilibrate for 1 hour.
[formula] […] Results and Discussion
Three sets of iontophoretic experiments were carried out. In the first set, as a control test, traditional Ag|AgCl electrodes were used for the mouse skin only without the PANi membrane. In the other two sets, with the PANi membrane and the mouse skin together, either PANi|AgCl configuration or the Ag|AgCl configuration as electrodes was tested.
Therefore, instead of using a simple aqueous solution, 5% linoleic acid was added to the doxycycline HCl solution consisting of ethanol and water (EtOH: water=2:1, v/v). The reason for using ethanol was to increase the solubility of linoleic acid in the water.

[3] = remark: listed apart in the source
Source text: For the permeation study of PANi membrane based on aqueous-organic partitioning system, doxycycline HCl suspension in light mineral oil was used as the donor solution so that its permeation results would be compared with those from a hydrophilized polyvinylidene fluoride (PVDF) membrane in a general way.

[4] = Iontophoretic release through mouse skin with and without PANi membrane; assay type: in vitro ADME; settings: PANi membrane and mouse skin together, iontophoresis, aqueous donor without chemical enhancer
[5] = PVDF membrane, aqueous-organic partitioning system, ref [9], cited from earlier work
[6] = Release through PANi membrane in Franz diffusion cell, no iontophoresis
[7] = PANi + skin, Ag|AgCl electrodes
[8] = PANi + skin, PANi|AgCl electrodes

Experimental flux [1]: 793 ± 111 μg/cm^2 hr
amount a skin patch can deliver [1]: about 0.8 mg
change of flux versus passive release (Table 1), in words [1]: increased more than ten times
release flux rate [1]: 793±111 μg/cm^2-hr
release, in words ([2]; PANi + skin, Ag|AgCl electrode set): no release
Flux [2, 7]: 0 μg/cm^2 hr
Q24 [2, 7]: 0 μg/cm^2
Flux [2, 8]: 94.4 ± 81.2 μg/cm^2 hr
Permeability [2, 8]: 1.56 ± 1.33 ×10⁻⁶ cm/s
Q24 [2, 8]: 2760 ± 3980 μg/cm^2
Flux ([2]; Skin only, Ag|AgCl electrodes): 48.5 ± 8.5 μg/cm^2 hr
Permeability ([2]; Skin only, Ag|AgCl electrodes): 1.06 ± 0.186 ×10⁻⁶ cm/s
Q24 ([2]; Skin only, Ag|AgCl electrodes): 1020 ± 642 μg/cm^2
Flux [3]: 31 ± 18 μg/cm^2 hr
Permeability [3]: 0.83 ± 0.56 ×10⁻⁶ cm/s
Q [3]: 80 ± 46 μg/cm^2
release, in words [4]: no release was achieved
SMILES: C[C@H]1c2cccc(O)c2C(=O)C2=C(O)[C@]3(O)C(=O)C(C(N)=O)=C(O)[C@@H](N(C)C)[C@@H]3[C@@H](O)[C@@H]21.Cl [Doxycycline HCl, doxycycline hydrochloride]
Q ([5]; 24 hr): 1440 ± 240 μg/cm^2
Flux [5]: 146 ± 27 μg/cm^2 hr
Permeability [5]: 8.3 ± 2.8 ×10⁻⁶ cm/s

SMILES: Cn1c(=O)c2c(ncn2C)n(C)c1=O [Caffeine, caffeine]
increase in flux vis-a-vis Table 1 [1]: about 30%
release flux rate [1]: 305±79 μg/cm^2-hr
Q24 (24 hours accumulation in the receptor part) ([6]; PANi membrane only): 573 ± 246 μg/cm^2
Permeability ([6]; PANi membrane only, aqueous donor (about 200 mg/10 ml caffeine, doxycycline HCl; about 400 mg/10 ml lidocaine HCl)): 3.33 ± 2.5 ×10⁻⁶ cm/s
Flux ([6]; PANi membrane only, aqueous donor, steady state): 240 ± 177 μg/cm^2 hr
Flux ([6]; caffeine donor concentration 5 mg/ml, PANi membrane): 66.6 μg/cm^2 h
Flux ([6]; caffeine donor concentration 10 mg/ml, PANi membrane): 136.2 μg/cm^2 h

SMILES: CCN(CC)CC(=O)Nc1c(C)cccc1C [Lidocaine HCl, lidocaine hydrochloride]
Experimental flux [1]: 411 ± 144 μg/cm^2 hr
change of flux versus passive release (Table 1), in words [1]: small decrease in the flux
release flux rate [1]: 411±144 μg/cm^2-hr
Q24 (24 hours accumulation in the receptor part) ([6]; PANi membrane only): 3330 ± 1760 μg/cm^2
